In US4755610A, “Hapalindoles” (priority 1986, dated 1988):
Values after ≈ are worked out from the molar mass of the structure shown.

Columns and labels:
Assay type in all cases: cell-based
[1] = system: Staphylococcus aureus X1.1; assay: In vitro antibacterial activity, standard agar-dilution assay; settings: Staphylococcus aureus X1.1; agar dilution; read-out: MIC
Proteus morganii PR15 = assay: as above; settings: Morganella morganii; Proteus morganii PR15; agar dilution; read-out: MIC
[2] = system: Klebsiella pneumoniae KAE; assay: as above; settings: Klebsiella pneumoniae KAE; agar dilution; read-out: MIC
Candida albicans = assay: In vitro antifungal activity, standard disc-plate assay; settings: disc-plate assay, read-out: MIC
[3] = system: Streptococcus pyogenes C203; assay: In vitro antibacterial activity, standard agar-dilution assay; settings: Streptococcus pyogenes C203; agar dilution; read-out: MIC
[4] = system: Staphylococcus aureus S13E; assay: microbe, parasite or virus in culture
[5] = system: Staphylococcus aureus V41; assay: In vitro antibacterial activity, standard agar-dilution assay; settings: Staphylococcus aureus V41; agar dilution; read-out: MIC
[6] = system: Haemophilus influenzae C.L.; assay: as above; settings: Haemophilus influenzae C.L.; agar dilution; read-out: MIC
[7] = system: Staphylococcus epidermidis EPI1; assay: as above; settings: Staphylococcus epidermidis EPI1; agar dilution; read-out: MIC
Escherichia coli TEM = assay: as above
[8] = system: Acinetobacter calcoaceticus AC12; assay: as above; settings: Acinetobacter calcoaceticus AC12; agar dilution; read-out: MIC
[9] = system: Trichophyton mentagrophytes; assay: In vitro antifungal activity, standard disc-plate assay; settings: disc-plate assay, read-out: MIC
Escherichia coli N10 = assay: In vitro antibacterial activity, standard agar-dilution assay; settings: Escherichia coli N10; agar dilution; read-out: MIC
[10] = system: Haemophilus influenzae 76; assay: as above; settings: Haemophilus influenzae 76; agar dilution; read-out: MIC
Shigella sonnei N9 = assay: as above; settings: Shigella sonnei N9; agar dilution; read-out: MIC
[11] = system: Staphylococcus aureus X400; assay: microbe, parasite or virus in culture
[12] = system: Streptococcus pneumoniae Park 1; assay: In vitro antibacterial activity, standard agar-dilution assay; settings: PARK1; Streptococcus pneumoniae Park 1; agar dilution; read-out: MIC
[13] = system: Streptococcus faecium ATCC 9790; assay: as above; settings: Enterococcus faecium, ATCC9790; Streptococcus faecium ATCC 9790; agar dilution; read-out: MIC
Escherichia coli EC14 = assay: as above; settings: Escherichia coli EC14; agar dilution; read-out: MIC
Salmonella sp. X514 = assay: as above; settings: Salmonella sp. X514; agar dilution; read-out: MIC
[14] = system: Staphylococcus epidermidis 222; assay: as above; settings: Staphylococcus epidermidis 222; agar dilution; read-out: MIC
[15] = system: Klebsiella pneumoniae X26; assay: as above; settings: Klebsiella pneumoniae X26; agar dilution; read-out: MIC
[16] = system: Klebsiella pneumoniae X68; assay: as above; settings: Klebsiella pneumoniae X68; agar dilution; read-out: MIC
[17] = system: Streptococcus sp group D 2041; assay: as above; settings: GROUPD2041; Streptococcus sp group D 2041; agar dilution; read-out: MIC

[C-]#[N+][C@@H]1[C@H]2c3c[nH]c4cccc(c34)C(C)(C)[C@H]2C[C@@H](Cl)[C@]1(C)C=C [Compound 1, hapalindole A]
MIC [1]: 4 µg/mL (≈ 11.8 µM) | MIC (Proteus morganii PR15): 32 µg/mL (≈ 94.4 µM) | MIC [2]: > 64 µg/mL | MIC (Candida albicans): 1.25 µg/mL (≈ 3.69 µM) | MIC [3]: 2 µg/mL (≈ 5.9 µM) | MIC [4]: 4 µg/mL (≈ 11.8 µM) | MIC [5]: 4 µg/mL (≈ 11.8 µM) | MIC [6]: 4 µg/mL (≈ 11.8 µM) | MIC [7]: 2 µg/mL (≈ 5.9 µM) | MIC (Escherichia coli TEM): 4 µg/mL (≈ 11.8 µM) | MIC [8]: 2 µg/mL (≈ 5.9 µM) | MIC [9]: 1.25 µg/mL (≈ 3.69 µM) | MIC (Escherichia coli N10): 4 µg/mL (≈ 11.8 µM) | MIC [10]: 4 µg/mL (≈ 11.8 µM) | MIC (Shigella sonnei N9): 8 µg/mL (≈ 23.6 µM) | MIC [11]: 4 µg/mL (≈ 11.8 µM) | MIC [12]: 16 µg/mL (≈ 47.2 µM) | MIC [13]: 16 µg/mL (≈ 47.2 µM) | MIC (Escherichia coli EC14): 8 µg/mL (≈ 23.6 µM) | MIC (Salmonella sp. X514): 8 µg/mL (≈ 23.6 µM) | MIC [14]: 0.06 µg/mL (≈ 0.177 µM) | MIC [15]: 4 µg/mL (≈ 11.8 µM) | MIC [16]: > 64 µg/mL | MIC [17]: 16 µg/mL (≈ 47.2 µM)

C=C[C@@]1(C)[C@H](Cl)C[C@H]2[C@H](c3c[nH]c4cccc(c34)C2(C)C)[C@H]1N=C=S [Compound 2, Hapalindole B]
MIC [1]: 2 µg/mL (≈ 5.39 µM) | MIC (Proteus morganii PR15): > 64 µg/mL | MIC [2]: > 64 µg/mL | MIC (Candida albicans): > 20 µg/mL | MIC [3]: 64 µg/mL (≈ 173 µM) | MIC [4]: 2 µg/mL (≈ 5.39 µM) | MIC [5]: 2 µg/mL (≈ 5.39 µM) | MIC [6]: > 64 µg/mL | MIC [7]: 2 µg/mL (≈ 5.39 µM) | MIC (Escherichia coli TEM): > 64 µg/mL | MIC [8]: > 64 µg/mL | MIC [9]: > 20 µg/mL | MIC (Escherichia coli N10): > 64 µg/mL | MIC [10]: > 64 µg/mL | MIC (Shigella sonnei N9): > 64 µg/mL | MIC [11]: 2 µg/mL (≈ 5.39 µM) | MIC [12]: 64 µg/mL (≈ 173 µM) | MIC [13]: 4 µg/mL (≈ 10.8 µM) | MIC (Escherichia coli EC14): > 64 µg/mL | MIC (Salmonella sp. X514): > 64 µg/mL | MIC [14]: 2 µg/mL (≈ 5.39 µM) | MIC [15]: > 64 µg/mL | MIC [16]: > 64 µg/mL | MIC [17]: 8 µg/mL (≈ 21.6 µM)

[C-]#[N+][C@@H]1[C@H](c2c[nH]c3ccccc23)[C@@H](C(=C)C)CC[C@]1(C)C=C [Compound 3, Hapalindole C]
MIC [1]: 16 µg/mL (≈ 52.6 µM) | MIC (Proteus morganii PR15): > 64 µg/mL | MIC [2]: > 64 µg/mL | MIC (Candida albicans): 0.625 µg/mL (≈ 2.05 µM) | MIC [3]: > 64 µg/mL | MIC [4]: 8 µg/mL (≈ 26.3 µM) | MIC [5]: 16 µg/mL (≈ 52.6 µM) | MIC [6]: 16 µg/mL (≈ 52.6 µM) | MIC [7]: 8 µg/mL (≈ 26.3 µM) | MIC (Escherichia coli TEM): 64 µg/mL (≈ 210 µM) | MIC [8]: 2 µg/mL (≈ 6.57 µM) | MIC [9]: 0.625 µg/mL (≈ 2.05 µM) | MIC (Escherichia coli N10): > 64 µg/mL | MIC [10]: 16 µg/mL (≈ 52.6 µM) | MIC (Shigella sonnei N9): > 64 µg/mL | MIC [11]: 16 µg/mL (≈ 52.6 µM) | MIC [12]: > 64 µg/mL | MIC [13]: > 64 µg/mL | MIC (Escherichia coli EC14): > 64 µg/mL | MIC (Salmonella sp. X514): > 64 µg/mL | MIC [14]: 16 µg/mL (≈ 52.6 µM) | MIC [15]: > 64 µg/mL | MIC [16]: > 64 µg/mL | MIC [17]: > 64 µg/mL

C=C[C@@]1(C)CC[C@H](C(=C)C)[C@@H](c2c[nH]c3ccccc23)[C@H]1N=C=S [Compound 4, Hapalindole D]
MIC [1]: 4 µg/mL (≈ 11.9 µM) | MIC (Proteus morganii PR15): > 64 µg/mL | MIC [2]: > 64 µg/mL | MIC (Candida albicans): > 20 µg/mL | MIC [3]: > 64 µg/mL | MIC [4]: 4 µg/mL (≈ 11.9 µM) | MIC [5]: 4 µg/mL (≈ 11.9 µM) | MIC [6]: > 64 µg/mL | MIC [7]: 8 µg/mL (≈ 23.8 µM) | MIC (Escherichia coli TEM): > 64 µg/mL | MIC [8]: > 64 µg/mL | MIC [9]: > 20 µg/mL | MIC (Escherichia coli N10): > 64 µg/mL | MIC [10]: > 64 µg/mL | MIC (Shigella sonnei N9): > 64 µg/mL | MIC [11]: 8 µg/mL (≈ 23.8 µM) | MIC [12]: > 64 µg/mL | MIC [13]: 8 µg/mL (≈ 23.8 µM) | MIC (Escherichia coli EC14): > 64 µg/mL | MIC (Salmonella sp. X514): > 64 µg/mL | MIC [14]: 4 µg/mL (≈ 11.9 µM) | MIC [15]: > 64 µg/mL | MIC [16]: > 64 µg/mL | MIC [17]: 8 µg/mL (≈ 23.8 µM)
